PMC8524858, “Dual inhibition of αvβ6 and αvβ1 reduces fibrogenesis in lung tissue explants from patients with IPF” (Respiratory Research, 2021)

Columns and labels:
human integrin αvβ1 = molecular target: T1, human integrin αvβ1 (Homo sapiens, UniProt P05556+P06756); test: Integrin ligand-binding assay, αvβ1 (fibronectin ligand)
T1 construct: purchased ACROBiosystems or R&D Systems IT1-H52E1 or 6579-AVB
Experimental: (§1) Integrin ligand-binding assays were performed similar to that previously described.
(§2) Microplates were coated with recombinant human integrins dissolved in PBS (2 µg/ml, overnight at room temperature). Following removal of the coating solution, plates were washed with PBS. Plates were blocked with 200 µL/well of blocking buffer (2% bovine serum albumin [BSA] in PBS) at 37 °C for 1 h. […] Plates were incubated for 2 h at 25 °C, washed, and incubated for 1 h with biotin-labeled anti-fibronectin or anti-LAP antibodies (for αvβ1 or αvβ6/αvβ8, respectively).

human integrin αvβ8 = molecular target: T2, human integrin αvβ8 (Homo sapiens, UniProt P06756+P26012); test: Integrin ligand-binding assay, αvβ8 (LAP ligand)
T2 construct: purchased R&D Systems 4135-AV
T2 sequence (P06756 31-992 limits assumed): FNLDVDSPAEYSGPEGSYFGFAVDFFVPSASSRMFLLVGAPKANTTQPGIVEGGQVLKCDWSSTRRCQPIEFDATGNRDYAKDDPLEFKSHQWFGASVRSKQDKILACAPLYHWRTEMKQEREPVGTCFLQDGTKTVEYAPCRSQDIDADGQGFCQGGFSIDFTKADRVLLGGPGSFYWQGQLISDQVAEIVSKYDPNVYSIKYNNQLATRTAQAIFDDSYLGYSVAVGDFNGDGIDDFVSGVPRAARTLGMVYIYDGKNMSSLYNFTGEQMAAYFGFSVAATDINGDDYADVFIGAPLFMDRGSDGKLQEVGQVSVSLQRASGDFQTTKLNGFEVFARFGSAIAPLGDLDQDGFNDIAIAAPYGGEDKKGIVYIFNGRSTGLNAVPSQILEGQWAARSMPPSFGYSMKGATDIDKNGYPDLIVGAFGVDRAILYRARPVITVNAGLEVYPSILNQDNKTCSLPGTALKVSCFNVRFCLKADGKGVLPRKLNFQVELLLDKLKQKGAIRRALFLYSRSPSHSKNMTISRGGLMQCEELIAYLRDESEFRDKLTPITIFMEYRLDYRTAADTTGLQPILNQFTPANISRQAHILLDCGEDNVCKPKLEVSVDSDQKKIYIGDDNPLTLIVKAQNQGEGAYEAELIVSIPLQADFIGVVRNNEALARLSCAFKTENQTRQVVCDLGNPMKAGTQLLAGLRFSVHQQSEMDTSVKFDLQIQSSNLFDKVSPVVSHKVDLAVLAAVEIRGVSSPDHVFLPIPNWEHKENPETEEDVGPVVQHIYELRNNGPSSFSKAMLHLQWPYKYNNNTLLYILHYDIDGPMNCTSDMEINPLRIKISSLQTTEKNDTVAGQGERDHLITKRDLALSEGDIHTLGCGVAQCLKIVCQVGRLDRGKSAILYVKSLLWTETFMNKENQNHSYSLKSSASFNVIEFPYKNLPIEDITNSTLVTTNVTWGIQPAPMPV
T2 sequence (P26012 43-684 limits assumed): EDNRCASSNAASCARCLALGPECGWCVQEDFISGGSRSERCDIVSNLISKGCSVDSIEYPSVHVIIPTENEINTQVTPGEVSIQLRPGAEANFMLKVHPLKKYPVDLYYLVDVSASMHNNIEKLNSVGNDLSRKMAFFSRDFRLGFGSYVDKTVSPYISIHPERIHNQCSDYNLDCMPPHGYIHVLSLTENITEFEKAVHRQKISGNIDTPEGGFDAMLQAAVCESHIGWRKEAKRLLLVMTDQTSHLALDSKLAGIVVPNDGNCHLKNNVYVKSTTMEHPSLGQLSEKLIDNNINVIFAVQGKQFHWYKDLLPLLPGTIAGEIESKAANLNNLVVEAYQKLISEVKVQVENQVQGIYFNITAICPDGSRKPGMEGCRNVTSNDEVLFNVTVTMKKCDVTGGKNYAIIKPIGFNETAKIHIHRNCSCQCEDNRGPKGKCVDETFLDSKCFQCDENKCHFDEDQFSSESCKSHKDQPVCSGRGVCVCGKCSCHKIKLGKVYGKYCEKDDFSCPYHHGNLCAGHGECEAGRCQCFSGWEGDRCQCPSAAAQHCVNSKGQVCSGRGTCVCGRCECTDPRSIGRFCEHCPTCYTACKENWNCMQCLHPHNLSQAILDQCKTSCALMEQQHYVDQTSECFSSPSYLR
Experimental: as §1, §2

[1] = system: normal human bronchial epithelial cell adhesion to LAP (αvβ6 integrin-mediated); test: Primary cell LAP adhesion assay (cell impedance), NHBE; assay type: cell-based; settings: normal human bronchial epithelial cells, read-out: IC50 for inhibition of adhesion to LAP
Experimental: (§3) Adhesion of primary human lung cells to LAP was quantified using the xCELLigence RTCA MP instrument (ACEA Biosciences; San Diego, CA, USA) via cell impedance measurements similar to that previously described.
(§4) Adhesion assays were performed using the xCELLigence RTCA MP instrument (ACEA Biosciences; San Diego, CA, USA) on 96-well PET plates (ACEA Biosciences; 300600910) via a cell impedance measurement similar to one previously described (E6). Plates were coated with LAP (Sino Biological; 10804-H08H1) overnight at 4 °C and blocked with BSA for 2 h at 37 °C. NHLF (40,000 cells/well), dHLF (40,000 cells/well), or NHBE (20,000 cells per well) in FBS-free media were combined with small-molecule integrin inhibitors or antibodies in the plates and incubated at 37 °C with 5% CO2. […] Anti-αv antibody, 17E6, and anti-β1 antibody, P5D2, were tested at a single concentration (10 μg/ml). Cell impedance (cell index) was measured at baseline and every 3 min for up to 24 h using xCELLigence RTCA 2.1.0 Software (ACEA Biosciences). […] Geometric mean IC50 was calculated for each compound following repeat analyses of multiple donor cells.

[2] = system: IPF lung fibroblast adhesion to LAP; test: Primary cell LAP adhesion assay (cell impedance), IPF HLF; assay type: cell-based; settings: Homo sapiens, HLFs isolated from fibrotic (IPF) lung tissue, read-out: IC50 for blocking adhesion to LAP
Experimental: as §3, §4

[3] = system: PCLSs prepared from bleomycin-challenged mouse lungs; test: Col1a1 expression in PCLSs from bleomycin-challenged mouse lungs; assay type: cell-based
From the text: PCLSs were generated from explanted lung tissue from patients with IPF and cultured as previously described. Mouse PCLSs were generated and cultured as previously described. Messenger ribonucleic acid (mRNA) levels in lysates prepared from snap-frozen tissue slices were quantified via NanoString PlexSet reagents and nCounter SPRINT Profiler (NanoString; Seattle, WA, USA; Additional file 1: Table S2) or TaqMan primers/probes on a Bio-Rad CFX96 thermocycler (Bio-Rad; Hercules, CA, USA; Additional file 1: Table S3).
Mouse PCLSs were generated and cultured based on previously reported methods (E13). Briefly, mice were challenged with bleomycin (Hospira; Lake Forest, IL, USA or Teva; Toronto, ON, Canada), either acutely with a single dose (3 U/kg or 4 U/kg) or chronically with multiple doses (3 U/kg bleomycin followed by four 1 U/kg challenges at 2-week intervals). Fourteen days after the final bleomycin challenge, lungs were harvested and 200 μm-thick slices were cut using a Compresstome VF-300-0Z (Precisionary Instruments).
Slices from each individual core (human) or mouse were distributed among the treatment groups to control for variability in the fibrotic injury within the tissue. […] After 3 or 7 days in culture, slices were washed and snap-frozen. Viability of sentinel slices on Days 0/1 and 3/7 was determined using WST-1 Cell Proliferation Reagent (Sigma 5015944001; St Louis, MO, USA).
For all figures (except Fig. 2B, Fig. S2, and Fig. S4), snap-frozen tissue slices were incubated in one-third RLT buffer (Qiagen #79216; Venlo, Netherlands) supplemented with 2 mg/ml proteinase K (Sigma-Aldrich #3115887001; St Louis, MO, USA) at 55 °C for 2 h 45 min, with periodic vortexing to generate ribonucleic acid (RNA)-compatible tissue lysate. This lysate was incubated overnight with probes from a custom fibrosis gene panel and NanoString PlexSet reagents (Table S2). The following day, samples were analyzed on a NanoString nCounter SPRINT Profiler (NanoString; Seattle, WA, USA). Messenger RNA (mRNA) counts were normalized to housekeeping genes (GUSB, HPRT1, RPLP0, and/or POLR1B) and total mRNA counts, relative to vehicle-treated control from the same experiment, are reported.
For Figs. 2B, S2, and S4, RNA purification and qPCR were performed by Transcriptic, Inc. (Menlo Park, CA, USA) using a proprietary automated protocol. Briefly, RNA was purified on a KingFisher Flex system (Thermo Fisher) and qPCR was performed on a Bio-Rad CFX96 (Bio-Rad; Hercules, CA, USA) with TaqMan primers/probes (Thermo Fisher) listed in Table S3. Ct values were normalized to housekeeping genes (Rn18sRn45s and Hprt) and reported as ddCT and fold change versus the vehicle-treated samples.

T1 sequence (P06756 31-992 limits assumed): as the sequence (P06756 31-992 limits assumed) above
T1 sequence (P05556 21-728 limits assumed): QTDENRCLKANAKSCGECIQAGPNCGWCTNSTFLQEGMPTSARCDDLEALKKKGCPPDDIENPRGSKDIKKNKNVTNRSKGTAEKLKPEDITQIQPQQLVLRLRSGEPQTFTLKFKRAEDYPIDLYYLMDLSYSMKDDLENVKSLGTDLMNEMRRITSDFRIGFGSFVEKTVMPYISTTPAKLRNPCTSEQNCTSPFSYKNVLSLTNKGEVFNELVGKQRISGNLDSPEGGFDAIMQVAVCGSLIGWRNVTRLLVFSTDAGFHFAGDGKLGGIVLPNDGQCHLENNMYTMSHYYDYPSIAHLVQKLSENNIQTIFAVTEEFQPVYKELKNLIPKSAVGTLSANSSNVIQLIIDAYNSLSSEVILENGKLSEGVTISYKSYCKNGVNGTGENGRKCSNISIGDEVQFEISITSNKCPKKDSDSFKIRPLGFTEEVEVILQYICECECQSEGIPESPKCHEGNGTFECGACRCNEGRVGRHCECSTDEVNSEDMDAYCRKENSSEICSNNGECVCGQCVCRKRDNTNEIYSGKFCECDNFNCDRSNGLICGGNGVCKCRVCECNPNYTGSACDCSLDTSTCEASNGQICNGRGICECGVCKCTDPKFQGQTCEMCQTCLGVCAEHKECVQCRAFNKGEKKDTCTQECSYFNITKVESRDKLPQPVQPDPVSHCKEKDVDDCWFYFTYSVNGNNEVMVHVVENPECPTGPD

## COCCN(CCCCc1ccc2c(n1)NCCC2)CC[C@H](Nc1ncnc2ccccc12)C(=O)O [PLN-74809]
Human integrin αvβ1
  IC50: 0.0034 µM
Human integrin αvβ1; ligand binding
  Fold selectivity (vs αvβ6): 0.6×
Human integrin αvβ8
  IC50: 2.54 µM
Human integrin αvβ8; ligand binding
  Fold selectivity (vs αvβ6): 445×
[1]
  IC50: 0.0393 µM
[2]
  IC50: 0.0235 µM
[3]; 3 days of treatment (Fig. S2)
  lowest concentration with significant reduction of Col1a1 mRNA expression: 16 nM
[3]; 3 days of treatment, dose titration (Fig. S2)
  reduction of Col1a1 mRNA expression: up to 71%
[3]; Mus musculus, 72 h, 3 days of treatment, extrapolation from dose-response curve of combined experiments (Fig. S4), read-out: minimum concentration required to reduce Col1a1 mRNA levels by 50%
  IC50: 0.172 µM
[3]; acutely injured mouse lungs, 3 days, PLN-74809 200 nM, GSK3008348 1000 nM, CWHM-12 1000 nM (Fig. 2B)
  inhibition of collagen mRNA expression: virtually the same degree as less selective multi-αv integrin inhibitors
[3]; chronic bleomycin-challenged mouse lungs, 7 days of treatment, nintedanib and pirfenidone at approximate clinical Cmax (Fig. 6C)
  effect on Col1a1 gene expression: significantly reduced
[3]; chronic bleomycin-challenged mouse lungs, 7 days, Compound A 471 nM, 3G9 0.5 µg/ml, PLN-74809 1.82 µM (Fig. 2A)
  effect on Col1a1 mRNA expression: effective at significantly reducing
